The text below walks through data of US20230167127A1, “COMPOUNDS AND THEIR USE IN THE TREATMENT OF BACTERIAL INFECTION” (Hoffmann-La Roche Inc., priority 2020, published 2023).

The assay deals with Escherichia coli ATCC 25922. Description: 50% growth inhibitory concentration (IC50) determination, Iso-Sensitest broth dilution. It is filed as cell-based. Conditions: strain Escherichia coli ATCC 25922, 10-point broth dilution, optical density at 600 nm over 16 h, read-out: Escherichia coli growth inhibition IC50. The method, boiled down: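 10-point twofold Iso-Sensitest broth dilution (e.g. 50 to 0.097 μM final) with DMSO stocks, incubated at 35±2° C. Growth followed by OD 600 nm every 20 min over 16 h; IC50 derived from growth inhibition during logarithmic phase.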
In general terms: In broth dilution the organism is exposed to a series of concentrations in liquid medium.

The mark [1] stands for this setting: Escherichia coli, ATCC25922, 16 h.

The term IC50 denotes the concentration at which inhibition is half-maximal.

Like-named read-outs stand apart in the source and are kept apart here.

As to `Cc1nc(OCCCN)c(C)c2c1CC(CNCCC1CN(c3ccc4c(n3)NC(=O)CO4)C(=O)O1)C2` (stereo not drawn) [Example 176, 6-[5-[2-[[3-(3-aminopropoxy)-1,4-dimethyl-6,7-dihydro-5H-cyclopenta[c]pyridin-6-yl]methylamino]ethyl]-2-oxo-1,3-oxazolidin-3-yl]-4H-pyrido[3,2-b][1,4]oxazin-3-one], under setting [1], the IC50 turned out to be 483 nM.
In the case of `COc1cc2c(c(C#N)n1)CC(CNCCC1CN(c3ccc4c(n3)NC(=O)CO4)C(=O)O1)C2` (stereo not drawn) [Example 53, 3-methoxy-6-[[2-[2-oxo-3-(3-oxo-4H-pyrido[3,2-b][1,4]oxazin-6-yl)-1,3-oxazolidin-5-yl]ethylamino]methyl]-6,7-dihydro-5H-cyclopenta[c]pyridine-1-carbonitrile], the IC50 under setting [1] was below 97.7 nM.
With `Cc1ncc(F)c2c1CC(CNC[C@@H](O)[C@H]1CN(c3cnc4c(n3)NC(=O)CO4)C(=O)O1)C2` (stereo partly drawn) [Example 360, 6-[(5R)-5-[(1R)-2-[(4-Fluoro-1-methyl-6,7-dihydro-5H-cyclopenta[c]pyridin-6-yl)methylamino]-1-hydroxyethyl]-2-oxo-1,3-oxazolidin-3-yl]-4H-pyrazino[2,3-b][1,4]oxazin-3-one; formic acid], the IC50 under setting [1] is 319 nM.
Still for that read-out and setting: for `N#Cc1c(OCC2CNC2)ccc2c1CC(CNCCC1CN(c3ccc4c(n3)NC(=O)CO4)C(=O)O1)C2` (stereo not drawn) [Example 129, 5-(azetidin-3-ylmethoxy)-2-[[2-[2-oxo-3-(3-oxo-4H-pyrido[3,2-b][1,4]oxazin-6-yl)-1,3-oxazolidin-5-yl]ethylamino]methyl]-2,3-dihydro-1H-indene-4-carbonitrile; formic acid] the value was 692 nM; for `CNC(=O)COc1cc(C#N)c2c(c1C)CC(CNCCC1CN(c3cnc4c(n3)NC(=O)CO4)C(=O)O1)C2` (stereo not drawn) [Example 383, 2-[[7-cyano-4-methyl-2-[[2-[2-oxo-3-(3-oxo-4H-pyrazino[2,3-b][1,4]oxazin-6-yl)-1,3-oxazolidin-5-yl]ethylamino]methyl]-2,3-dihydro-1H-inden-5-yl]oxy]-N-methylacetamide], 139 nM; for `NC1c2cccc(F)c2CC1CNCCC1CN(c2ccc3c(n2)NC(=O)CS3)C(=O)O1` (racemic) [Example 165, 5-[2-[(rac-1,2-trans-1-amino-4-fluoro-2,3-dihydro-1H-inden-2-yl)methylamino]ethyl]-3-(3-oxo-4H-pyrido[3,2-b][1,4]thiazin-6-yl)-1,3-oxazolidin-2-one; formic acid], below 97.7 nM.
On to `NC(=O)COc1cc(F)c2c(c1)CC(CNCC[C@H]1CN(c3cnc4c(n3)NC(=O)CO4)C(=O)O1)C2` (single isomer, unassigned; isomer b) [Example 380], for which the IC50 is below 97.7 nM.
With `NC1(COc2cc(F)c3c(c2F)CC(CNCCC2CN(c4cnc5c(n4)NC(=O)CO5)C(=O)O2)C3)CC1` (stereo not drawn) [Example 408, 6-[5-[2-[[5-[(1-aminocyclopropyl)methoxy]-4,7-difluoro-2,3-dihydro-1H-inden-2-yl]methylamino]ethyl]-2-oxo-1,3-oxazolidin-3-yl]-4H-pyrazino[2,3-b][1,4]oxazin-3-one; formic acid], the IC50 under setting [1] is below 97.7 nM.
With `O=C1COc2ncc(N3CC(CCNCC4Cc5cc(OCCn6ccnc6)cc(F)c5C4)OC3=O)nc2N1` (stereo not drawn) [Example 332, 6-[5-[2-[[4-fluoro-6-(2-imidazol-1-ylethoxy)-2,3-dihydro-1H-inden-2-yl]methylamino]ethyl]-2-oxo-1,3-oxazolidin-3-yl]-4H-pyrazino[2,3-b][1,4]oxazin-3-one], under setting [1], the IC50 came to 184 nM.
Consider `Cc1ncc(F)c2c1CC(CNCCc1nn(-c3cnc4c(n3)NC(=O)CO4)c(=O)o1)C2` (stereo not drawn) [Example 335, 6-[5-[2-[(4-fluoro-1-methyl-6,7-dihydro-5H-cyclopenta[c]pyridin-6-yl)methylamino]ethyl]-2-oxo-1,3,4-oxadiazol-3-yl]-4H-pyrazino[2,3-b][1,4]oxazin-3-one], for which the half-maximal inhibitory concentration (IC50) under setting [1] was determined as 225 nM.
Take `N#Cc1cccc2c1CC(CN1CC(C3CN(c4cnc5c(n4)NC(=O)CO5)C(=O)O3)C1)C2` (stereo not drawn) [Example 76, 2-[[3-[2-oxo-3-(3-oxo-4H-pyrazino[2,3-b][1,4]oxazin-6-yl)-1,3-oxazolidin-5-yl]azetidin-1-yl]methyl]-2,3-dihydro-1H-indene-4-carbonitrile; formic acid]: under setting [1], the IC50 is below 97.7 nM.
Take `O=C1COc2ccc(N3CC(CCNCC4Cc5c(ccnc5Cl)C4O)OC3=O)nc2N1` (racemic) [Example 41, 6-[2-oxo-5-[2-[[rac-(5,6-trans)-1-chloro-5-hydroxy-6,7-dihydro-5H-cyclopenta[c]pyridin-6-yl]methylamino]ethyl]-1,3-oxazolidin-3-yl]-4H-pyrido[3,2-b][1,4]oxazin-3-one; formic acid]: under setting [1], the IC50 was 728 nM.
For the compound `Cc1nc(OCC2(N)CC2)cc2c1CC(CNCCC1CN(c3ccc4c(n3)NC(=O)CO4)C(=O)O1)C2` (stereo not drawn) [Example 175, 6-[5-[2-[[3-[(1-aminocyclopropyl)methoxy]-1-methyl-6,7-dihydro-5H-cyclopenta[c]pyridin-6-yl]methylamino]ethyl]-2-oxo-1,3-oxazolidin-3-yl]-4H-pyrido[3,2-b][1,4]oxazin-3-one], the IC50 under setting [1] turned out to be 193 nM.
For `NC1c2cccc(Cl)c2CC1CNCCC1CN(c2ccc3c(n2)NC(=O)CO3)C(=O)O1` (racemic) [Example 226, 6-[2-Oxo-5-[2-[[rac-1,2-trans-1-amino-4-chloro-2,3-dihydro-1H-inden-2-yl]methylamino]ethyl]-1,3-oxazolidin-3-yl]-4H-pyrido[3,2-b][1,4]oxazin-3-one], the IC50 under setting [1] was below 97.7 nM.
With `NC1(COc2ncc3c(c2Cl)CC(CNCCC2CN(c4ccc5c(n4)NC(=O)CO5)C(=O)O2)C3)CC1` (stereo not drawn) [Example 181, 6-[5-[2-[[3-[(1-aminocyclopropyl)methoxy]-4-chloro-6,7-dihydro-5H-cyclopenta[c]pyridin-6-yl]methylamino]ethyl]-2-oxo-1,3-oxazolidin-3-yl]-4H-pyrido[3,2-b][1,4]oxazin-3-one], under setting [1], the IC50 is below 97.7 nM.
Still for that read-out and setting: then `Cc1c(OCC(=O)NC(C)C)nc(C#N)c2c1CC(CNCCC1CN(c3ccc4c(n3)NC(=O)CO4)C(=O)O1)C2` (stereo not drawn) [Example 222, 2-((1-cyano-4-methyl-6-(((2-(2-oxo-3-(3-oxo-3,4-dihydro-2H-pyrido[3,2-b][1,4]oxazin-6-yl)oxazolidin-5-yl)ethyl)amino)methyl)-6,7-dihydro-5H-cyclopenta[c]pyridin-3-yl)oxy)-N-isopropylacetamide], with 717 nM; and `Cc1c(OCC2(N)CC2)ncc2c1CC(CNCCC1CN(c3ccc4c(n3)NC(=O)CO4)C(=O)O1)C2` (stereo not drawn) [Example 217, 6-[5-[2-[[3-[(1-aminocyclopropyl)methoxy]-4-methyl-6,7-dihydro-5H-cyclopenta[c]pyridin-6-yl]methylamino]ethyl]-2-oxo-1,3-oxazolidin-3-yl]-4H-pyrido[3,2-b][1,4]oxazin-3-one], with below 97.7 nM.
Regarding `Cc1nc(OCCCS(C)(=O)=O)c(C)c2c1CC(CNCCC1CN(c3ccc4c(n3)NC(=O)CO4)C(=O)O1)C2` (stereo not drawn) [Example 105, 6-[5-[2-[[1,4-dimethyl-3-(3-methylsulfonylpropoxy)-6,7-dihydro-5H-cyclopenta[c]pyridin-6-yl]methylamino]ethyl]-2-oxo-1,3-oxazolidin-3-yl]-4H-pyrido[3,2-b][1,4]oxazin-3-one], the concentration for half-maximal inhibition (IC50) under setting [1] was 1110 nM.
